What was measured:
mice = experiment: Dark Avoidance Assay (reversal of scopolamine induced memory deficit); type: in vivo
Method: In this assay mice are tested for their ability to remember an unpleasant stimulus for a period of 24 hours. A mouse is placed in a chamber that contains a dark compartment; a strong incandescent light drives it to the dark compartment, where an electric shock is administered through metal plates on the floor. The animal is removed from the testing apparatus and tested again, 24 hours later, for the ability to remember the electric shock.
If scopolamine, an anticholinergic that is known to cause memory impairment, is administered before an animal's initial exposure to the test chamber, the animal re-enters the dark compartment shortly after being placed in the test chamber 24 hours later. This effect of scopolamine is blocked by an active test compound, resulting in a greater interval before re-entry into the dark compartment.
The test results are expressed as the percent of a group of animals in which the effect of scopolamine is blocked, as manifested by an increased interval between being placed in the test chamber and re-entering the dark compartment.

acetylcholinesterase = acetylcholinesterase (Homo sapiens, UniProt P22303); experiment: Acetylcholinesterase Inhibition Assay (photometric method of Ellman et al.); type: biochemical
Chain of acetylcholinesterase (P22303 32-614): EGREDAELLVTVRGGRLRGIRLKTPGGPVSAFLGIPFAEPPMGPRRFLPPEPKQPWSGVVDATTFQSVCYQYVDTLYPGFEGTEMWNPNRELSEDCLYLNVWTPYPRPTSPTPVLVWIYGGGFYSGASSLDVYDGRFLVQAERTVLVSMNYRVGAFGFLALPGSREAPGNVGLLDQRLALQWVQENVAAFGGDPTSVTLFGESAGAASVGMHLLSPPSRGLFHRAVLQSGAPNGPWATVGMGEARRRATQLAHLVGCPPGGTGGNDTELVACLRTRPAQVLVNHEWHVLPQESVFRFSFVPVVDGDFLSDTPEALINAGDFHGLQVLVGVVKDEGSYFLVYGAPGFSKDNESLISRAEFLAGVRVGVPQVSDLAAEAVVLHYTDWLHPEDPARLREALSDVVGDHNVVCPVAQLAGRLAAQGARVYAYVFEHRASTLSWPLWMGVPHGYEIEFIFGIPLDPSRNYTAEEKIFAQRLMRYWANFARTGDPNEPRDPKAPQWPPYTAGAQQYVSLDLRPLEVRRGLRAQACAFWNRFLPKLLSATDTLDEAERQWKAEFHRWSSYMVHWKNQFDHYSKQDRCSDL

Row | Compound | % of Animals with Scopolamine Induced Memory Deficit Reversal (mice; mouse, in vivo, 0.31 mg/kg) [%] | IC50 (acetylcholinesterase) [µM] | % of Animals with Scopolamine Induced Memory Deficit Reversal (mice; mice, dose 0.31 mg/kg of body weight, s.c, retest 24 hours later) [%]
1 | CNC(=O)Oc1ccc2c(c1)[C@]1(C)CCN(C)[C@@H]1N2C [Physostigmine, reference compound] | 20 | – | –
2 | FC(F)(F)c1ccc2c(N=Cc3ccccc3)c3c(nc2c1)C1CCC3C1 (stereo not shown) [1,4-Methano-N-(phenylmethylene)-6-trifluoromethyl-1,2,3,4-tetrahydro-9-acridinamine] | – | 22 | –
3 | C(=Nc1c2c(nc3ccccc13)C1CCC2C1)c1ccccc1 (stereo not shown) [1,4-Methano-N-(phenylmethylene)-1,2,3,4-tetrahydro-9-acridinamine] | – | 12 | 27
